Measured values: patent US20150306107A1, “SAA Derivative Compound Restores eNOS And Inhibits Oxidative Stress-Induced A Diseases In Hypoxia” (JANSFAT BIOTECHNOLOGY CO., LTD., priority 2014, published 2015)

How the values were obtained:
[1] = tested on: eNOS; experiment: Western blotting of eNOS expression in isolated rat pulmonary artery ring, short-term (acute) hypoxia or normoxia; format: cell-based; conditions: for eNOS expression, Pulmonary Artery Ring: acute hypoxia, Normoxia 100, Hypoxia 65.3 ± 7.8
Protocol: (§1) In our in vitro short-term experiment, isolated rat pulmonary artery was grown under normoxia (20% O2) or hypoxia (1% O2) at 37° C. for 24 hrs as was previously done (Wu BN, et al. Int J Immunopathol Pharmacol 24:925, 2011). The heart weight and body weight ratio (HW/BW) of the rats treated with one of SPAAX-1, SPAAX-1 RX complex, Sildenafil or Sildenafil RX complex each measured on the 21st hypoxic day. All animal care and the experimental protocols of this study were approved by the Animal Care and Use Committee of the Kaohsiung Medical University. Male Wistar rats (200-250 g), provided by the National Laboratory Animal Breeding and Research Center (Taipei, Taiwan), were housed under constant temperature and controlled illumination. Food and water were available ad libitum.
(§2) Whole right lung tissues of hypoxia-treated and untreated rats were isolated and cut into small strips and placed into an extraction buffer (Tris 10 mM, pH 7.0, NaCl 140 mM, PMSF 2 mM, DTT 5 mM, NP-40 0.5%, pepstatin A 0.05 mM and leupeptin 0.2 mM) for protein extraction, and then centrifuged at 12,500 g for 30 min. To measure the expression levels of the proteins, the total proteins were extracted and Western blotting analysis was performed as described previously (Bivalacqua T J, et al., 2013, TJ PLoSONE 8: e68028. doi:10.1371/journal. pone.0068028). Briefly, the protein extract was boiled to a ratio of 4:1 with a sample buffer (Tris 100 mM, pH 6.8, glycerol 20%, SDS 4% and bromophenol blue 0.2%). Electrophoresis was performed using 10% SDS-polyacrylamide gel (2 hr, 100 V, 40 mA, […] protein per lane). Separated proteins were transferred to PVDF membranes treated with 5% fat-free milk powder to block the nonspecific IgGs (90 min, 100 V) and incubated for one hour with a specific protein antibody. The blot was then incubated with anti-mouse or anti-goat IgG linked to alkaline phosphatase (1:1000) for 1 hr. Immunoreactive bands were visualized using horseradish peroxidase-conjugated secondary antibodies and subsequent electrochemiluminescence (ECL) detection (GE Healthcare Bio-Sciences Corp., Piscataway, N.J., U.S.A.). Mouse or rabbit monoclonal antibody of eNOS (Upstate, N.Y., U.S.A.), sGCα (Sigma-Adrich, CA, U.S.A., sGCβ (Santa Cruz, Calif., U.S.A.), PDE-5A (BD Tansduction, San Jose, Calif., U.S.A.), PKG (Calbiochem, San Diego, Calif., U.S.A.) ROCKII (Upstate, N.Y., U.S.A.), RhoA (Santa Cruze, Calif., U.S.A.) and the loading control protein β-actin (Sigma-Adrich, MO, U.S.A.) were used in our Western blot analysis.
(§3) The Western blotting analysis measurements were performed as per lung tissue.

[2] = tested on: ROCK II; experiment: Western blotting of ROCK II expression in isolated rat pulmonary artery ring, short-term (acute) hypoxia or normoxia; format: cell-based; conditions: for ROCK II expression, Pulmonary Artery Ring: acute hypoxia, Normoxia 100, Hypoxia 560 ± 21
Protocol: as §1, §2, §3

[3] = tested on: eNOS; experiment: Western blotting of eNOS expression in rat carvenosus strip, acute hypoxia; format: cell-based; design: unit not given here
[4] = tested on: VEGF; experiment: Western blotting of VEGF expression in isolated rat pulmonary artery ring, short-term (acute) hypoxia; format: cell-based
Protocol: as §1, §2, §3

[5] = tested on: VEGF; experiment: Western blotting of VEGF expression in rat carvenosus strip, acute hypoxia; format: cell-based; design: unit not given here
[6] = tested on: ROCK II; experiment: Cigarette smoking-induced Rho/ROCK activation of rat pulmonary artery ring; format: in vivo; conditions: Intraperitoneal (100 mg/kg) 1 h prior to smoke exposure, Non-Smoking control 100, Smoking 530 ± 34
Protocol: Intraperitoneal SAA complex (100 mg/kg in 200 μl of the solution) or 200 μl of saline (control) were given to animals through intraperitoneal injection 1 h prior to smoke exposure.
as §2

[7] = tested on: ROCK II; experiment: Streptozotocin (STZ) induced RhoA/ROCKII activation of rat carvenosa tissue; format: in vivo; conditions: STZ model; 2.5 mg/kg; Control 100, STZ 142 ± 28
Protocol: (§4) Electrophoresis was performed using 10% SDS-polyacrylamide gel (2 hr, 100 V, 40 mA, […] protein per lane). Separated proteins were transferred to PVDF membranes treated with 5% fat-free milk powder to block the nonspecific IgGs (90 min, 100 V) and incubated for one hour with a specific protein antibody. The blot was then incubated with anti-mouse or anti-goat IgG linked to alkaline phosphatase (1:1000) for 1 hr. Immunoreactive bands were visualized using horseradish peroxidase-conjugated secondary antibodies and subsequent electrochemiluminescence (ECL) detection (GE Healthcare Bio-Sciences Corp., Piscataway, N.J., U.S.A.). Mouse or rabbit monoclonal antibody of eNOS (Upstate, N.Y., U.S.A.), sGCα (Sigma-Adrich, CA, U.S.A., sGCβ (Santa Cruz, Calif., U.S.A.), PDE-5A (BD Tansduction, San Jose, Calif., U.S.A.), PKG (Calbiochem, San Diego, Calif., U.S.A.) ROCKII (Upstate, N.Y., U.S.A.), RhoA (Santa Cruze, Calif., U.S.A.) and the loading control protein β-actin (Sigma-Adrich, MO, U.S.A.) were used in our Western blot analysis.

[8] = tested on: eNOS; experiment: Streptozotocin (STZ) induced eNOS down-regulation of rat carvenosa tissue; format: in vivo; conditions: STZ model; 2.5 mg/kg; Control 100, STZ 60 ± 7.3
Protocol: as §4

[9] = tested on: ROCK II; experiment: Cigarette smoking-induced Rho/ROCK activation of rat pulmonary artery ring; format: in vivo; conditions: Nebulization (2.5 mM), Non-Smoking control 100, Smoking 540 ± 28
[10] = Normoxia 100, Hypoxia 62.4 ± 5.5
[11] = normoxia for 24 hrs, 10 μm, versus non-treated controls

Compound | eNOS expression, Pulmonary Artery Ring [1] | ROCK II expression, Pulmonary Artery Ring [2] | eNOS expression, Carvenosus [3, 10] | VEGF expression, Pulmonary Artery Ring ([4]; Normoxia 100, Hypoxia 175 ± 14) | VEGF expression, Carvenosus ([5]; Normoxia 100, Hypoxia 170 ± 15) | other results
CCCc1nn(C)c2c(=O)[nH]c(-c3cc(S(=O)(=O)N4CCN(C)CC4)ccc3OCC)nc12.O=C(O)C(=O)O [Reagent 1015, Sildenafil oxalate complex] | 68 ± 15 | 395 ± 27 | 65 ± 4.7 | – | – | –
CCCc1nn(C)c2c(=O)[nH]c(-c3cc(S(=O)(=O)N4CCN(C)CC4)ccc3OCC)nc12.O=C1OC(C(O)CO)C(O)=C1O [Reagent 1007, Sildenafil L-ascorbate complex] | – | – | – | – | – | eNOS expression, Pulmonary Artery Ring ([1]; listed as 1007): 160 ± 5.8; VEGF expression, Pulmonary Artery Ring ([4]; Normoxia 100, Hypoxia 175 ± 14, listed as 1007): 92 ± 6.4; ROCK II expression, Pulmonary Artery Ring ([2]; listed as 1007): 190 ± 7.7; eNOS expression, Carvenosus ([3]; Normoxia 100, Hypoxia 62.4 ± 5.5, listed as 1007): 142 ± 6.9; VEGF expression, Carvenosus ([5]; Normoxia 100, Hypoxia 170 ± 15, listed as 1007): 94 ± 6.8; ROCK II of pulmonary artery ring [6]: 84 ± 8.2; ROCK II, Carvanosus tissue [7]: 38 ± 5.1%; eNOS, Carvanosus tissue [8]: 84 ± 8.2%; ROCK II of pulmonary artery ring [9]: 66 ± 5.1
CCCc1nn(C)c2c(=O)[nH]c(-c3cc(S(=O)(=O)N4CCN(C)CC4)ccc3OCC)nc12.Cl [Reagent 1003, Sildenafil HCl complex] | 116 ± 7.2 | – | 110 ± 5.2 | 94 ± 9.8 | 105 ± 16 | ROCK II of pulmonary artery ring [6]: 82 ± 7.6; ROCK II of pulmonary artery ring [9]: 62 ± 4.8
CCCc1nn(C)c2c(=O)[nH]c(-c3cc(S(=O)(=O)N4CCN(C)CC4)ccc3OCC)nc12.O=C(O)C=CC(=O)O [Reagent 1008, Sildenafil maleate complex] | – | – | 45 ± 4.2 | – | – | ROCK II expression, Pulmonary Artery Ring ([2]; listed as 1008): 150 ± 14; VEGF expression, Carvenosus ([5]; Normoxia 100, Hypoxia 170 ± 15, listed as 1008): 116 ± 12
CCCCCCCCC=CCCCCCCCC(=O)O.CCCc1nn(C)c2c(=O)[nH]c(-c3cc(S(=O)(=O)N4CCN(C)CC4)ccc3OCC)nc12 [Reagent 1013, Sildenafil oleate complex] | 104 ± 18 | – | – | – | – | –
CCCc1nn(C)c2c(=O)[nH]c(-c3cc(S(=O)(=O)N4CCN(C)CC4)ccc3OCC)nc12.O=C1OC(C(O)CO)C(O)=C1O [Reagent 1002, Sildenafil DL-ascorbate complex] | – | – | – | – | – | eNOS expression, Pulmonary Artery Ring ([1]; listed as 1002): 130 ± 6.4; VEGF expression, Pulmonary Artery Ring ([4]; Normoxia 100, Hypoxia 175 ± 14, listed as 1002): 90 ± 5.8; ROCK II expression, Pulmonary Artery Ring ([2]; listed as 1002): 211 ± 12.5; eNOS expression, Carvenosus ([3]; Normoxia 100, Hypoxia 62.4 ± 5.5, listed as 1002): 125 ± 5.4; VEGF expression, Carvenosus ([5]; Normoxia 100, Hypoxia 170 ± 15, listed as 1002): 90 ± 7.9
CCCc1nn(C)c2c(=O)[nH]c(-c3cc(S(=O)(=O)N4CCN(C)CC4)ccc3OCC)nc12.O=C(O)C=CC(=O)O [Reagent 1010, Sildenafil fumarate complex] | – | – | – | – | – | ROCK II expression, Pulmonary Artery Ring ([2]; listed as 1010): 125 ± 13; VEGF expression, Carvenosus ([5]; Normoxia 100, Hypoxia 170 ± 15, listed as 1010): 117 ± 17
CCCCCCCC/C=C\CCCCCCCC(=O)O.COc1ccccc1N1CCN(CCn2cnc3c2c(=O)n(C)c(=O)n3C)CC1 [Example 7, 7-[2-[4-(2-methoxyphenyl)piperazinyl]ethyl]-1,3-dimethylxanthine oleate complex] | 180 ± 7.6 | 190 ± 7.7 | 122 ± 4.9 | 91 ± 6.5 | 84 ± 8.8 | –
C[C@@H](N)[C@H]1CC[C@H](C(=O)Nc2ccncc2)CC1 [Reagent Y27632, Y27632, reference compound] | – | – | – | – | – | eNOS in isolated hypoxic pulmonary artery ([1]; hypoxia for 24 hrs, versus control level in normoxia, hypoxia 60±8.3%): 50±4.7%; expression of eNOS in isolated pulmonary artery ring [1, 11]: 114.1±12.3%; expression of ROCK II in isolated hypoxic pulmonary artery ([2]; hypoxia for 24 hrs, versus control level in normoxia, hypoxia 180±10.2%): 150±13.1%; Expression of ROCK II in isolated pulmonary artery ring [2, 11]: 67.5±14.8%
CC(O)C(=O)O.CCCc1nn(C)c2c(=O)[nH]c(-c3cc(S(=O)(=O)N4CCN(C)CC4)ccc3OCC)nc12 [Reagent 1011, Sildenafil lactate complex] | 75 ± 13 | 310 ± 21 | 46 ± 4.7 | 133 ± 17 | 118 ± 16 | –
CCCc1nn(C)c2c(=O)[nH]c(-c3cc(S(=O)(=O)N4CCN(C)CC4)ccc3OCC)nc12.O=C(O)CC(O)C(=O)O [Reagent 1009, Sildenafil malate complex] | – | 120 ± 12 | – | – | 118 ± 18 | –
CC(=O)O.CCCc1nn(C)c2c(=O)[nH]c(-c3cc(S(=O)(=O)N4CCN(C)CC4)ccc3OCC)nc12 [Reagent 1012, Sildenafil acetate complex] | 70 ± 13 | 270 ± 27 | – | – | – | –
CCCc1nn(C)c2c(=O)[nH]c(-c3cc(S(=O)(=O)N4CCN(C)CC4)ccc3OCC)nc12.O=C(O)c1ccccc1O [Reagent 1016, Sildenafil-Salicylate complex] | 165 ± 16 | 178 ± 19 | 110 ± 4.7 | 90 ± 5.2 | 90 ± 7.5 | –
Sildenafil Arginate complex [Reagent 1017] | 180 ± 12 | 182 ± 21 | 124 ± 11 | 90 ± 6.4 | 90 ± 8.2 | –
Cn1c(=O)c2c(ncn2CCN2CCN(c3ccc([N+](=O)[O-])cc3)CC2)n(C)c1=O.O=C1O[C@H]([C@@H](O)CO)C(O)=C1O [Example 8, 7-[2-[4-(4-nitrophenyl)piperazinyl]ethyl]-1,3-dimethyl-xanthine ascorbate complex] | 80 ± 3.2 | 150 ± 14 | 45 ± 4.2 | 122 ± 16 | 116 ± 12 | –
